{"source": "patent US20240082200A1", "about": "“4-THIOCARBAMOYLPHENYL 2-(4-OXOPHENYL)-PHENYL PROPANOATE FOR THE TREATMENT OF PAIN ASSOCIATED WITH UROLOGIC CHRONIC PELVIC PAIN SYNDROME” (Antibe Therapeutics Inc., priority 2022, published 2024)", "key": {"[1]": {"test_system": "cyclophosphamide (CYP)-induced interstitial cystitis", "assay": "Mechanical allodynia (electronic von Frey) in CYP-induced cystitis mice", "type": "in vivo, male C57BL/6 SPF mice", "conditions": "for reversal of abdominal mechanical allodynia (withdrawal threshold, AUC 21 to 24 h after CYP): 21 h after CYP", "procedure": "Experiments were conducted with male C57BL/6 SPF mice (6-10 weeks of age) obtained from the animal care facilities at the Faculty of Medicine, University of Sao Paulo, Brazil. Mice were randomly separated into different treatment groups (n=5 to 7 per group). Groups of five or fewer mice were kept in Perspex cages under standard controlled conditions (22° C.; 12/12 h light/dark cycle) with free access to food (Nuvilab CR-1, Quimtia S/A, Brazil) and filtered tap water. The study was performed in agreement with the guidelines from the Brazilian Council for Control of Animal Experimentation (CONCEA) guidelines, consistent with the Animal Welfare Act. All the experimental protocols were approved by the local ethics committee (CEUA—ICB; protocol n ° 2055050819). According to the internal laboratory rules, euthanasia was performed if severe distress related to the test agents developed during the experiment.\nCystitis was induced by a single i.p. injection of cyclophosphamide CYP (300 mg kg^−1; Oliveira et al., 2018), while the control group received an i.p. injection of saline (10 ml kg^−1). […] The drugs were dissolved in 0.5% CMC at a concentration of 10 ml/kg^−1.\nThe mice were individually placed in a clear Perspex testing chamber (11 cm×9.5 cm×18 cm) on an elevated wire grid platform (0.5 cm2 grid) for an adequate acclimatization (˜1 h). Mechanical sensitivity assessment was performed with the aid of an electronic von Frey apparatus (Insight Inc., Ribeiräo Preto, SP, Brazil) with groups of 5-7 mice each, as described previously (Costa et al., 2020). Force-generating pressure was applied to the lower abdomen in the vicinity of the bladder (pelvic region between the urethra and the anus) with a pressure transducer connected to a digital force detector (Insight Ltd, Ribeiräo Preto/SP, Brazil). Retraction of the abdomen (mechanical allodynia) from the probe was considered as a positive response to the stimuli and were recorded in grams (g). […] All mechanical sensitivity testing was performed in a blinded manner. Response threshold data were analyzed via analysis of variance (ANOVA) followed by Tukey's post hoc test. All mice were euthanized with an overdose of isoflurane followed by cervical dislocation."}, "gastric mucosa": {"test_system": "gastric mucosa", "assay": "Assessment of gastric lesions in IC/BPS mice", "type": "in vivo, male C57BL/6 SPF mice", "conditions": "3 h after oral dose, compound of Formula I 77 mg kg^-1 / ketoprofen 50 mg kg^-1 (equimolar)", "procedure": "Briefly, mice from distinct experimental groups were euthanized by cervical dislocation under isoflurane anesthesia, and the stomach was excised, opened along the smaller curvature, rinsed gently with saline and then photographed with a digital camera (Samsung Galaxy S20, Campinas/SP, Brazil). The hemorrhagic gastric lesion area was measured blindly (mm^2) using computerized planimetry software (ImageJ, Maryland, USA)."}, "bladder strips": {"test_system": "bladder strips", "assay": "Bladder functional assay in vitro (bladder strips from treated CYP-cystitis mice)", "type": "in vivo, male C57BL/6 SPF mice", "conditions": "for reduced contractile response of CYP bladder strips to KCl (80 mM): improvement: bladders taken 24 h after CYP", "procedure": "The drugs were dissolved in 0.5% CMC at a concentration of 10 ml/kg^−1.\nAfter 24 h, mice with CYP-induced cystitis were euthanized and the bladders were immediately transferred into a petri-dish. […] The bladders were divided into two longitudinal strips and mounted in an isolated organ bath system (Panlab Harvard, Massachussetts, USA) containing Krebs Henseleit solution at 37° C. (pH 7.4, O2/CO2 […] v/v) under a resting tension of 5 mN. Tissues were allowed to stabilize for 1 h, and during this period the bathing solution was replaced every 15 min. Isometric force was recorded using a PowerLab 8/30 Data Acquisition System (Software Chart, version 6.0, ADInstrument, Milford, MA, USA)."}, "periodontitis": {"test_system": "periodontitis", "conditions": "compared with ketoprofen (parent drug); cited from earlier work"}, "[2]": {"conditions": "in vivo; cited from earlier work"}, "[3]": {"test_system": "surgical incision pain model", "conditions": "mice; cited from earlier work"}}, "note": "“Also recorded” adds a separate entry of the source."}
{"compound": "CC(C(=O)Oc1ccc(C(N)=S)cc1)c1ccc(C(=O)c2ccccc2)cc1", "note": "(centres unmarked) [compound of Formula I, 4-thiocarbamoylphenyl 2-(4-oxophenyl)-phenyl propanoate]", "values": [{"measurement": "reversal of abdominal mechanical allodynia (withdrawal threshold, AUC 21 to 24 h after CYP)", "setting": "[1]; equimolar dose compound of Formula I 15 mg kg^-1 / ketoprofen 10 mg kg^-1, p.o., vs CYP + CMC 0.5%", "result": "significant dose-dependent differences"}, {"measurement": "reversal of abdominal mechanical allodynia (withdrawal threshold, AUC 21 to 24 h after CYP)", "setting": "[1]; equimolar dose compound of Formula I 46 mg kg^-1 / ketoprofen 30 mg kg^-1, p.o., vs CYP + CMC 0.5%", "result": "significant dose-dependent differences"}, {"measurement": "reversal of abdominal mechanical allodynia (withdrawal threshold, AUC 21 to 24 h after CYP)", "setting": "[1]; equimolar dose compound of Formula I 77 mg kg^-1 / ketoprofen 50 mg kg^-1, p.o., vs CYP + CMC 0.5%", "result": "significant dose-dependent differences"}, {"measurement": "analgesic effect as compared to equimolar ketoprofen (mechanical allodynia AUC)", "setting": "[1]; highest equimolar dose, 77 mg kg^-1 p.o. vs ketoprofen 50 mg kg^-1, P<0.001", "result": "enhanced analgesic effects"}, {"measurement": "anti-hyperalgesic effect on decreased abdominal withdrawal threshold (mechanical allodynia, AUC 21 to 24 h after CYP)", "setting": "[1]; lowest equimolar dose (compound of Formula I 4.6 mg kg^-1 / ketoprofen 3 mg kg^-1), p.o., 21 h after CYP 300 mg kg^-1 i.p., vs CYP + CMC 0.5%", "result": "no an anti-hyperalgesic effect"}, {"measurement": "potency compared with ketoprofen (abdominal hyperalgesic state and bladder contractile response, CYP-induced IC/BPS model)", "setting": "[1]; orally administered as a single dose", "result": "greater than that of ketoprofen"}, {"measurement": "hemorrhagic gastric lesions (gastric mucosal hemorrhagic injury)", "setting": "gastric mucosa", "result": "did not; also recorded: normal gastric mucosa"}, {"measurement": "reduced contractile response of CYP bladder strips to KCl (80 mM): improvement", "setting": "bladder strips; equimolar dose compound of Formula I 15 mg kg^-1 / ketoprofen 10 mg kg^-1 p.o., vs CYP control", "result": "significantly and dose-dependently increased"}, {"measurement": "reduced contractile response of CYP bladder strips to KCl (80 mM): improvement", "setting": "bladder strips; equimolar dose compound of Formula I 46 mg kg^-1 / ketoprofen 30 mg kg^-1 p.o., vs CYP control", "result": "significantly and dose-dependently increased"}, {"measurement": "reduced maximal (Emax) contractile response elicited by carbachol (CCh) in bladder strips of IC/BPS mice: improvement", "setting": "bladder strips; high doses (compound of Formula I 77 mg kg^-1 / ketoprofen 50 mg kg^-1 p.o.)", "result": "significantly increased"}, {"measurement": "reduced contractile response of CYP bladder strips to KCl (80 mM): improvement", "setting": "bladder strips; high doses: compound of Formula I 77 mg kg^-1 / ketoprofen 50 mg kg^-1 p.o.", "result": "neither compound of Formula I (77 mg kg^−1) nor ketoprofen (50 mg kg^−1) significantly improved"}, {"measurement": "potency and effectiveness in periodontitis versus parent drug", "setting": "periodontitis", "result": "more potent and effective"}, {"measurement": "GI safety compared to ketoprofen", "setting": "[2]", "result": "increased GI safety"}, {"measurement": "efficacy over ketoprofen in surgical incision pain model", "setting": "[3]", "result": "increased efficacy"}]}
